Test [1] has as its target MAPK14 (human) (UniProt Q16539). Put plainly: Inhibition of TNF Production (U937 Cells).
Test [2] shares this target. Put plainly: Inhibition of TNF Production (PBMC).
Another test concerns the target MAPK14 (UniProt Q16539). Put plainly: p38 alpha Inhibition.

Sequence of MAPK14 (human) (Q16539 whole entry, looked up): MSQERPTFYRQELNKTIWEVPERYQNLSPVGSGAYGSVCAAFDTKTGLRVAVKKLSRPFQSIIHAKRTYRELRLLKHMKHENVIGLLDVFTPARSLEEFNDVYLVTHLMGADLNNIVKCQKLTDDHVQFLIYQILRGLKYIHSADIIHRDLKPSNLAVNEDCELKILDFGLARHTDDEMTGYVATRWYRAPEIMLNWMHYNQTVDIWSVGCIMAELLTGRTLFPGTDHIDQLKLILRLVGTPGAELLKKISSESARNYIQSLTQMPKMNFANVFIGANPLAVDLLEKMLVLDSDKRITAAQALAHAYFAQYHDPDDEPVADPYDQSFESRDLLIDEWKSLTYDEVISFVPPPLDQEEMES
Sequence of MAPK14 (Q16539 whole entry, looked up): as above

As to `CCNc1cc(-c2ccncc2)n(-c2ccc(F)cc2)n1`, the values for the IC50 against MAPK14 (human) [1] and on MAPK14 (human) [2] were 10000 nM and greater than 10000 nM, respectively.

For the compound `Cc1cc(-c2ccnc(NCc3ccccc3)c2)n(-c2ccc(Cl)cc2)n1`, the IC50 – broadly, the concentration at which inhibition is half-maximal – against MAPK14 (human) [1] turned out to be 200 nM; at MAPK14 (human) [2], 300 nM. Consider `Cc1cccc(-n2nc(C)cc2-c2ccnc(NCc3ccccc3)c2)c1`, for which the 50% inhibitory concentration (IC50) at MAPK14 (human) [2] was 100 nM.

`Cc1cccc(-n2nc(C)cc2-c2ccnc(OCc3ccccc3)c2)c1`: the IC50 is 2640 nM against MAPK14 (human) [1] and greater than 10000 nM against MAPK14 (human) [2]. Turning to `Cc1ccc(-n2nc(C)cc2-c2ccnc(N(C)C)c2)cc1`, on MAPK14 (human) [2], the IC50 was greater than 10000 nM. Consider `Cc1cccc(-n2nc(C)cc2-c2ccnc(NCCc3ccccc3)c2)c1`, for which the IC50 was determined as 50 nM against MAPK14 (human) [1] and 20 nM on MAPK14 (human) [2]. The matching figures for `Cc1cccc(-n2nc(C)cc2-c2ccnc(NCCO)c2)c1`: 210 nM and 100 nM.

`Cc1cc(-c2ccnc(NCc3cccnc3)c2)n(-c2cccc(F)c2)n1`: on MAPK14 (human) [2], the IC50 is 600 nM. For the compound `O=C(c1cnn(-c2ccc(F)cc2)c1-c1ccncc1)N1CCNCC1`, the IC50 against MAPK14 (human) [1] was 10000 nM; at MAPK14 (human) [2], greater than 10000 nM. The matching figures for `Cc1cccc(-n2nc(C)cc2-c2ccnc(N(C)C)c2)c1`: 10000 nM and 3400 nM. Take `Cc1cc(-c2ccnc(C#N)c2)n(-c2ccc(F)cc2)n1`: the IC50 against MAPK14 (human) [1] and on MAPK14 (human) [2] was greater than 10000 nM in each case.

Consider `CNc1cc(-c2cc(C)nn2-c2ccc(C)cc2)ccn1`, for which the IC50 is 17900 nM on MAPK14 (human) [1] and 100 nM on MAPK14 (human) [2]. `Fc1ccc(-n2nccc2-c2ccnc(NCCc3ccccc3)c2)cc1`: the concentration for half-maximal inhibition (IC50) against MAPK14 (human) [2] worked out at 10000 nM. On the same count and under the same terms, next, `Cc1cccc(-n2nc(C)cc2-c2ccnc(N(C)CCc3ccccc3)c2)c1`: 800 nM. Turning to `Fc1ccc(-n2ncc(N3CCNCC3)c2-c2ccncc2)cc1`, the IC50 against MAPK14 (human) [1] was 10000 nM; against MAPK14 (human) [2], greater than 10000 nM.

`Cc1ccc(-n2nc(C)cc2-c2ccnc(NCc3ccccc3)c2)cc1` gave an IC50 against MAPK14 (human) [2] of 1100 nM. The same measure, in the same setting: next, `Cc1cnn(Cc2ccccc2)c1-c1ccncc1`: greater than 10000 nM. As for `Cc1cnn(-c2cccc(F)c2)c1-c1ccncc1`, at MAPK14 (human) [2], the IC50 was 4000 nM.

In the case of `Cc1cccc(-n2nc(C)cc2-c2ccnc(N)c2)c1`, at MAPK14 (human) [2], the IC50 came to 500 nM.

As for `Cc1cccc(-n2ncc(C)c2-c2ccncc2)c1`, the IC50 at MAPK14 (human) [1] amounted to 660 nM; against MAPK14 (human) [2] it was 600 nM. Take `CCc1cnn(-c2cccc(F)c2)c1-c1ccncc1`: the IC50 on MAPK14 was determined as 16500 nM; against MAPK14 (human) [1], 1150 nM; against MAPK14 (human) [2], 700 nM. With `Cc1ccc(-n2nc(C)cc2-c2cccc(N)c2)cc1`, the IC50 on MAPK14 (human) [2] was greater than 10000 nM. For `Cc1cnn(-c2ccc(F)cc2)c1-c1ccncc1`, the figures for the IC50 against MAPK14 (human) [1] and at MAPK14 (human) [2] were 10000 nM and 100 nM, respectively. Take `Cc1cccc(-n2nc(C)cc2-c2ccnc(C(N)=O)c2)c1`: on MAPK14 (human) [2], the IC50 was found to be 5000 nM.

As for `Cc1cc(-c2ccnc(Cl)c2)n(-c2cccc(F)c2)n1`, the IC50 against MAPK14 (human) [1] was greater than 10000 nM. As for `Cc1cccc(-n2nc(C)cc2-c2ccnc(N(C)Cc3ccccc3)c2)c1`, the IC50 on MAPK14 (human) [1] was 10000 nM; at MAPK14 (human) [2], greater than 10000 nM. The matching figures for `Fc1ccc(-n2nccc2-c2ccnc(NCc3ccccc3)c2)cc1`: 240 nM and 1300 nM.

As to `Fc1ccc(-n2nccc2-c2ccnc(Cl)c2)cc1`, the IC50 worked out at 10000 nM against MAPK14 (human) [1] and 8100 nM at MAPK14 (human) [2]. Consider `Cc1cccc(-n2nc(C)cc2-c2ccnc(C#N)c2)c1`, for which the values for the IC50 against MAPK14 (human) [1] and at MAPK14 (human) [2] were 1650 nM and 1700 nM, respectively. In turn, `Cc1cc(-c2ccnc(N=[N+]=[N-])c2)n(-c2cccc(F)c2)n1` had an IC50 at MAPK14 (human) [2] of 2200 nM.

With `Cc1cccc(-n2nc(C)cc2-c2ccnc(S(C)(=O)=O)c2)c1`, the IC50 against MAPK14 (human) [2] was greater than 10000 nM. Same read-out and setting: next, `Cc1ccc(-n2nc(C)cc2-c2ccnc(NCc3cccnc3)c2)cc1`: 1500 nM. `COC(=O)c1cnn(-c2ccc(F)cc2)c1-c1ccncc1` registered an IC50 on MAPK14 (human) [1] of 10000 nM. `Cc1ccc(-n2nc(C)cc2-c2ccnc(Cl)c2)cc1` gave an IC50 on MAPK14 (human) [2] of 2900 nM.

As to `Cc1cccc(-n2nc(C)cc2-c2cc[nH]c(=O)c2)c1`, the IC50 on MAPK14 (human) [1] is 10000 nM; against MAPK14 (human) [2], 2400 nM. The matching figures for `COc1cc(-c2cc(C)nn2-c2cccc(C)c2)ccn1`: 1310 nM and 1900 nM. Turning to `Cc1ccc(-n2nc(C)cc2-c2ccnc(NCCO)c2)cc1`, the IC50 against MAPK14 (human) [2] amounted to 200 nM. Consider `CCCc1cnn(-c2cccc(F)c2)c1-c1ccncc1`, for which the values for the IC50 against MAPK14, on MAPK14 (human) [1] and against MAPK14 (human) [2] were 1480 nM, 830 nM and 1300 nM, respectively.

At MAPK14 (human) [1], `Cc1cc(-c2ccnc(NCCc3ccccc3)c2)n(-c2ccc(Cl)cc2)n1` showed an IC50 of 860 nM. The ID50 on MAPK14 (human) [2] is 100 nM. For `NC(=O)c1cnn(-c2ccc(F)cc2)c1-c1ccncc1`, the IC50 against MAPK14 (human) [1] and on MAPK14 (human) [2] was greater than 10000 nM throughout. Consider `Cc1cc(-c2ccnc(NCCO)c2)n(-c2ccc(Cl)cc2)n1`, for which the IC50 at MAPK14 (human) [1] came to 480 nM; against MAPK14 (human) [2] it was 100 nM.

As to `O=C(O)c1cnn(-c2ccc(F)cc2)c1-c1ccncc1`, the IC50 against MAPK14 (human) [1] worked out at 10000 nM. As to `CCNc1cc(-c2cc(C)nn2-c2ccc(C)cc2)ccn1`, the values for the IC50 on MAPK14 (human) [1] and against MAPK14 (human) [2] were 720 nM and 200 nM, respectively.

These data come from the Kinase Knowledgebase extract (Sharma et al. 2016).
